# Key:
# Format in all cases: organism-based
# [1] = test system: Vigna angularis; assay: Phytotoxicity in Vigna angularis (adzuki bean) assessed as visual injury at 72 g ai/ha after 7 days applied as spray relative to untreated control; conditions: in vivo, other, 168 h
# [2] = test system: Vigna angularis; assay: Phytotoxicity in Vigna angularis (adzuki bean) assessed as visual injury at 144 g ai/ha after 7 days applied as spray relative to untreated control; conditions: in vivo, other, 168 h
# [3] = test system: Vigna angularis; assay: Phytotoxicity in Vigna angularis (adzuki bean) assessed as visual injury at 72 g ai/ha after 14 days applied as spray relative to untreated control; conditions: in vivo, other, 336 h
# [4] = test system: Vigna angularis; assay: Phytotoxicity in Vigna angularis (adzuki bean) assessed as crop yield at 72 g ai/ha measured during post emergence applied as spray (reference value: 2.05 t/ha); conditions: in vivo, other
# [5] = test system: Vigna angularis; assay: Phytotoxicity in Vigna angularis (adzuki bean) assessed as shoot dry weight at 144 g ai/ha measured per 1 m row after 42 days applied as spray (reference value: 153 g); conditions: in vivo, other, 1008 h
# [6] = test system: Vigna angularis; assay: Phytotoxicity in Vigna angularis (adzuki bean) assessed as plant height at 144 g ai/ha after 28 days applied as spray (RVB = 34 cm); conditions: in vivo, other, 672 h
# [7] = test system: Vigna angularis; assay: Phytotoxicity in Vigna angularis (adzuki bean) assessed as visual injury at 72 g ai/ha after 28 days applied as spray relative to untreated control; conditions: in vivo, other, 672 h
# [8] = test system: Vigna angularis; assay: Phytotoxicity in Vigna angularis (adzuki bean) assessed as visual injury at 144 g ai/ha after 14 days applied as spray relative to untreated control; conditions: in vivo, other, 336 h
# [9] = test system: Vigna angularis; assay: Phytotoxicity in Vigna angularis (adzuki bean) assessed as visual injury at 144 g ai/ha after 28 days applied as spray relative to untreated control; conditions: in vivo, other, 672 h
# [10] = test system: Vigna angularis; assay: Phytotoxicity in Vigna angularis (adzuki bean) assessed as seed moisture content at 72 g ai/ha after 42 days applied as spray (reference value: 13.9%); conditions: in vivo, other, 1008 h, at 72 g/ha
# [11] = test system: Vigna angularis; assay: Phytotoxicity in Vigna angularis (adzuki bean) assessed as crop yield at 144 g ai/ha measured during post emergence applied as spray (reference value: 2.05 t/ha); conditions: in vivo, other
# [12] = test system: Vigna angularis; assay: Phytotoxicity in Vigna angularis (adzuki bean) assessed as shoot dry weight at 72 g ai/ha measured per 1 m row after 42 days applied as spray (reference value: 153 g); conditions: in vivo, other, 1008 h
# [13] = test system: Vigna angularis; assay: Phytotoxicity in Vigna angularis (adzuki bean) assessed as seed moisture content at 144 g ai/ha after 42 days applied as spray (reference value: 13.9%); conditions: in vivo, other, 1008 h, at 144 g/ha
# [14] = test system: Vigna angularis; assay: Phytotoxicity in Vigna angularis (adzuki bean) assessed as plant height at 72 g ai/ha after 28 days applied as spray (RVB = 34 cm); conditions: in vivo, other, 672 h
# [15] = test system: Vigna angularis; assay: Phytotoxicity in Vigna angularis (adzuki bean) assessed as visual injury at 1000 g ai/ha after 14 days applied as spray relative to untreated control; conditions: in vivo, other, 336 h
# [16] = test system: Vigna angularis; assay: Phytotoxicity in Vigna angularis (adzuki bean) assessed as visual injury at 500 g ai/ha after 28 days applied as spray relative to untreated control; conditions: in vivo, other, 672 h
# [17] = test system: Vigna angularis; assay: Phytotoxicity in Vigna angularis (adzuki bean) assessed as visual injury at 1000 g ai/ha after 28 days applied as spray relative to untreated control; conditions: in vivo, other, 672 h
# [18] = test system: Vigna angularis; assay: Phytotoxicity in Vigna angularis (adzuki bean) assessed as shoot dry weight at 500 g ai/ha measured per 1 m row after 42 days applied as spray (reference value: 153 g); conditions: in vivo, other, 1008 h
# [19] = test system: Vigna angularis; assay: Phytotoxicity in Vigna angularis (adzuki bean) assessed as plant height at 1000 g ai/ha after 28 days applied as spray (RVB = 34 cm); conditions: in vivo, other, 672 h
# [20] = test system: Vigna angularis; assay: Phytotoxicity in Vigna angularis (adzuki bean) assessed as seed moisture content at 500 g ai/ha after 42 days applied as spray (reference value: 13.9%); conditions: in vivo, other, 1008 h, at 500 g/ha
# [21] = test system: Vigna angularis; assay: Phytotoxicity in Vigna angularis (adzuki bean) assessed as crop yield at 500 g ai/ha measured during post emergence applied as spray (reference value: 2.05 t/ha); conditions: in vivo, other
# [22] = test system: Vigna angularis; assay: Phytotoxicity in Vigna angularis (adzuki bean) assessed as visual injury at 500 g ai/ha after 7 days applied as spray relative to untreated control; conditions: in vivo, other, 168 h
# [23] = test system: Vigna angularis; assay: Phytotoxicity in Vigna angularis (adzuki bean) assessed as shoot dry weight at 1000 g ai/ha measured per 1 m row after 42 days applied as spray (reference value: 153 g); conditions: in vivo, other, 1008 h
# [24] = test system: Vigna angularis; assay: Phytotoxicity in Vigna angularis (adzuki bean) assessed as seed moisture content at 1000 g ai/ha after 42 days applied as spray (reference value: 13.9%); conditions: in vivo, other, 1008 h, at 1000 g/ha
# [25] = test system: Vigna angularis; assay: Phytotoxicity in Vigna angularis (adzuki bean) assessed as plant height at 500 g ai/ha after 28 days applied as spray (RVB = 34 cm); conditions: in vivo, other, 672 h
# [26] = test system: Vigna angularis; assay: Phytotoxicity in Vigna angularis (adzuki bean) assessed as visual injury at 1000 g ai/ha after 7 days applied as spray relative to untreated control; conditions: in vivo, other, 168 h
# [27] = test system: Vigna angularis; assay: Phytotoxicity in Vigna angularis (adzuki bean) assessed as visual injury at 500 g ai/ha after 14 days applied as spray relative to untreated control; conditions: in vivo, other, 336 h
# [28] = test system: Vigna angularis; assay: Phytotoxicity in Vigna angularis (adzuki bean) assessed as crop yield at 1000 g ai/ha measured during post emergence applied as spray (reference value: 2.05 t/ha); conditions: in vivo, other
smiles,measurement,setting,value
CCOC(=O)[C@@H](C)Oc1ccc(Oc2cnc3cc(Cl)ccc3n2)cc1 [QUIZALOFOP-P-ETHYL],Activity,[1],1.4%
same,Activity,[2],2.4%
same,Activity,[3],1.2%
same,Crop_yield,[4],2.22 tons/ha
same,Activity,[5],135 g
same,Activity,[6],33.2 cm
same,Activity,[7],0.3%
same,Activity,[8],1.8%
same,Activity,[9],0.8%
same,Activity,[10],13.9%
same,Crop_yield,[11],2.08 tons/ha
same,Activity,[12],140 g
same,Activity,[13],14.1%
same,Activity,[14],35.2 cm
CCC/C(=N\OCC)C1=C(O)CC(CC(C)SCC)CC1=O (stereo not drawn) [SETHOXYDIM],Activity,[15],3.6%
same,Activity,[16],0.4%
same,Activity,[17],1.1%
same,Activity,[18],134 g
same,Activity,[19],32.8 cm
same,Activity,[20],14.1%
same,Crop_yield,[21],2.04 tons/ha
same,Activity,[22],3.7%
same,Activity,[23],142 g
same,Activity,[24],14.3%
same,Activity,[25],33.1 cm
same,Activity,[26],4.9%
same,Activity,[27],1.6%
same,Crop_yield,[28],1.95 tons/ha
